Measured values as given in patent publication US9126984B2, “4-(indol-3-yl)-pyrazole derivatives, pharmaceutical compositions and methods for use” (ITEOS THERAPEUTICS, priority 2013, dated 2015).
pIC50: −log10 of the molar value.

Key:
[1] = molecular target: T1, human recombinant TDO2 enzyme (Homo sapiens, UniProt P48775); assay: Assay for TDO2 enzymatic activity determination; assay type: biochemical; conditions: human recombinant TDO2, L-Trp 1 mM, room temperature one hour, kynurenine absorbance at 480 nm
T1 construct: made in house
Procedure: To measure the TDO2 activity, the reaction mixture contained (final concentrations) potassium phosphate buffer (50 mM, pH 7.5), ascorbic acid (0.25 M), methylene blue (0.125 μM), catalase (40 units/mL, from bovine liver, Sigma), and human recombinant TDO2 enzyme (prepared as described in Dolusic et al. J. Med. Chem.; 2011, 54, 5320-5334; 0.9 μg) without or with the compounds of the present invention embodiments at the indicated concentrations (total volume 112.5 μL). The reaction was initiated by the addition of 37.5 μL of L-Trp (final concentration 1 mM) at room temperature. The reaction was conducted at room temperature during one hour and stopped by the addition of 30 μL of 30% (w/v) trichloroacetic acid.
To convert N-formylkynurenine into kynurenine, the reaction mixture was incubated at 65° C. for 30 min. Then 150 μL of the reaction mixture was mixed with 120 μL, of 2.5% (w/v) 4-(dimethylamino)-benzaldehyde in acetic acid and incubated for 5 min at room temperature. Kynurenine concentrations were determined by measuring the absorbance at 480 nm. A standard curve was made with pure kynurenine. The TDO activity was measured as described above using ten serial concentrations of certain embodiments of the compounds of the present invention. Data were fitted using the Prism software (GraphPad Software, Inc.).

[2] = molecular target: T2, murine mastocytoma P815 cells overexpressing hTDO2 (Homo sapiens, UniProt P48775); assay: Cellular assay for TDO2 activity determination; assay type: cell-based; conditions: P815 cells overexpressing hTDO2, overnight incubation at 37° C., kynurenine absorbance at 480 nm
T2 construct: expressed in transfected cells; host or cells: murine mastocytoma P815 cells
Procedure: The assay was performed in 96-well flat bottom plates seeded with murine mastocytoma P815 cells overexpressing hTDO2 (prepared as described in Pilotte et al., PNAS, 2012, 109(7), 2497-2502), at a concentration of 5×10^4 cells/well in a final volume of 200 μL. To determine TDO or IDO activity, the cells were incubated overnight at 37° C. at 5% CO2 in IMDM (Invitrogen) supplemented with 2% FBS and 2% penicillin/streptomycin in the presence of the compounds of the present invention, at different concentrations.
The plates were then centrifuged 5 min at 1000 rpm, and 100 μL of the supernatant were collected in a conical plate, 30 uL of TCA 30% were added and a further centrifugated at 3000×g for 10 minutes. 100 μL of the supernatant were collected in a flat bottomed plate and 100 μL of 2% (w/v) 4-(dimethylamino)-benzaldehyde in acetic acid and incubated for 5 min at room temperature. Kynurenine concentrations were determined by measuring the absorbance at 480 nm. A standard curve was made with pure kynurenine. The TDO activity was measured as described above using ten serial concentrations of the compounds of the present invention. Data were fitted using the Prism software (GraphPad Software, Inc.).

T2 sequence (P48775 whole entry): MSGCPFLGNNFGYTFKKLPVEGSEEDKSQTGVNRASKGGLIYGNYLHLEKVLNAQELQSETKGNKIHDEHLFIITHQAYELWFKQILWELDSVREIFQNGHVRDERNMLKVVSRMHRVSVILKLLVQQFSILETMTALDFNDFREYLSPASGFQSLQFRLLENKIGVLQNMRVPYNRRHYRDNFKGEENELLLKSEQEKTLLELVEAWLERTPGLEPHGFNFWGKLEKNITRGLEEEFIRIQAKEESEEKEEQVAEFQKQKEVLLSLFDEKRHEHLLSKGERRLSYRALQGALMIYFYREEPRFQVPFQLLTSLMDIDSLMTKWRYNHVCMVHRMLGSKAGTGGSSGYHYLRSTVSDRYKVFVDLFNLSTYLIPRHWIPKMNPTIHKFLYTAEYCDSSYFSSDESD
T1 sequence (P48775 whole entry): as above

| Structure (SMILES) | pIC50 [1] | pIC50 [2] |
| --- | --- | --- |
| CC(Cn1cc(-c2c[nH]c3cc(F)ccc23)cn1)C(N)=O (single isomer, unassigned) [Example 36, 3-(4-(6-fluoro-1H-indol-3-yl)-1H-pyrazol-1-yl)-2-methylpropanamide] | 5.00 to 6.00 | > 6.00 |
| Cc1c(-c2c[nH]c3cc(F)ccc23)cnn1C (single isomer, unassigned) [Example 74, 3-(1,5-dimethyl-1H-pyrazol-4-yl)-6-fluoro-1H-indole] | 5.00 to 6.00 | > 6.00 |
| Fc1ccc2c(-c3cnn(C4CNC4)c3)c[nH]c2c1 [Example 2, 3-(1-(azetidin-3-yl)-1H-pyrazol-4-yl)-6-fluoro-1H-indole] | > 6.00 | > 6.00 |
| CC(=O)N1CC(n2cc(-c3c[nH]c4cc(F)ccc34)cn2)C1 [Example 3, 1-(3-(4-(6-fluoro-1H-indol-3-yl)-1H-pyrazol-1-yl)azetidin-1-yl)ethanone] | 5.00 to 6.00 |  |
| NC(=O)N1CC(n2cc(-c3c[nH]c4cc(F)ccc34)cn2)C1 [Example 4, 3-(4-(6-fluoro-1H-indol-3-yl)-1H-pyrazol-1-yl)azetidine-1-carboxamide] | 5.00 to 6.00 |  |
| CNC(=O)N1CC(n2cc(-c3c[nH]c4cc(F)ccc34)cn2)C1 [Example 5, 3-(4-(6-fluoro-1H-indol-3-yl)-1H-pyrazol-1-yl)-N-methylazetidine-1-carboxamide] | 5.00 to 6.00 |  |
| Fc1ccc2c(-c3cnn(CC4CNC4)c3)c[nH]c2c1 [Example 6, 3-(1-(azetidin-3-ylmethyl)-1H-pyrazol-4-yl)-6-fluoro-1H-indole] | > 6.00 | > 6.00 |
| CN(C)CCNC(=O)CCn1cc(-c2c[nH]c3cc(F)ccc23)cn1 [Example 13, N-(2-(dimethylamino)ethyl)-3-(4-(6-fluoro-1H-indol-3-yl)-1H-pyrazol-1-yl)propanamide] | 5.00 to 6.00 |  |
| CNC(=O)CCn1cc(-c2c[nH]c3cc(F)ccc23)cn1 [Example 14, 3-(4-(6-fluoro-1H-indol-3-yl)-1H-pyrazol-1-yl)-N-methylpropanamide] | 5.00 to 6.00 |  |
| CN(C)C(=O)CCn1cc(-c2c[nH]c3cc(F)ccc23)cn1 [Example 15, 3-(4-(6-fluoro-1H-indol-3-yl)-1H-pyrazol-1-yl)-N,N-dimethylpropanamide] | 5.00 to 6.00 |  |
| O=C(O)CCn1cc(-c2c[nH]c3cc(F)ccc23)cn1 [Example 16, 3-(4-(6-fluoro-1H-indol-3-yl)-1H-pyrazol-1-yl)propanoic acid] | 5.00 to 6.00 |  |
| O=C(O)CCn1cc(-c2c[nH]c3cc(F)c(F)cc23)cn1 [Example 17, 3-(4-(5,6-difluoro-1H-indol-3-yl)-1H-pyrazol-1-yl)propanoic acid] | 4.00 to 5.00 |  |
| O=C1NCCN1CCn1cc(-c2c[nH]c3cc(F)ccc23)cn1 [Example 18, 1-(2-(4-(6-fluoro-1H-indol-3-yl)-1H-pyrazol-1-yl)ethyl)imidazolidin-2-one] | 5.00 to 6.00 |  |
| CN1CCN(CCn2cc(-c3c[nH]c4cc(F)ccc34)cn2)CC1 [Example 19, 6-fluoro-3-(1-(2-(4-methylpiperazin-1-yl)ethyl)-1H-pyrazol-4-yl)-1H-indole] | 5.00 to 6.00 | > 6.00 |
| Fc1ccc2c(-c3cnn(CCN4CCOCC4)c3)c[nH]c2c1 [Example 20, 4-(2-(4-(6-fluoro-1H-indol-3-yl)-1H-pyrazol-1-yl)ethyl)morpholine] | 5.00 to 6.00 | 5.00 to 6.00 |
| NC(=O)NCCn1cc(-c2c[nH]c3cc(F)ccc23)cn1 [Example 22, 1-(2-(4-(6-fluoro-1H-indol-3-yl)-1H-pyrazol-1-yl)ethyl)urea] | 5.00 to 6.00 | 5.00 to 6.00 |
| CNC(=O)NCCn1cc(-c2c[nH]c3cc(F)ccc23)cn1 [Example 23, 1-(2-(4-(6-fluoro-1H-indol-3-yl)-1H-pyrazol-1-yl)ethyl)-3-methylurea] | 5.00 to 6.00 |  |
| CS(=O)(=O)NCCn1cc(-c2c[nH]c3cc(F)ccc23)cn1 [Example 25, N-(2-(4-(6-fluoro-1H-indol-3-yl)-1H-pyrazol-1-yl)ethyl)methanesulfonamide] | 5.00 to 6.00 | > 6.00 |

| Structure (SMILES) | pIC50 [1] | pIC50 [2] |
| --- | --- | --- |
| OCCn1cc(-c2c[nH]c3cc(F)ccc23)cn1 [Example 26, 2-(4-(6-fluoro-1H-indol-3-yl)-1H-pyrazol-1-yl)ethanol] | > 6.00 | > 6.00 |
| Fc1ccc2c(-c3cnn(CCN4CCNCC4)c3)c[nH]c2c1 [Example 27, 6-fluoro-3-(1-(2-(piperazin-1-yl)ethyl)-1H-pyrazol-4-yl)-1H-indole] | 5.00 to 6.00 | > 6.00 |
| CC(=O)N1CCN(CCn2cc(-c3c[nH]c4cc(F)ccc34)cn2)CC1 [Example 28, 1-(4-(2-(4-(6-fluoro-1H-indol-3-yl)-1H-pyrazol-1-yl)ethyl)piperazin-1-yl)ethanone] | 4.00 to 5.00 |  |
| O=C1CCCN1CCn1cc(-c2c[nH]c3cc(F)ccc23)cn1 [Example 30, 1-(2-(4-(6-fluoro-1H-indol-3-yl)-1H-pyrazol-1-yl)ethyl)pyrrolidin-2-one] | 5.00 to 6.00 |  |
| O=C(O)Cn1cc(-c2c[nH]c3cc(F)ccc23)cn1 [Example 41, 2-(4-(6-fluoro-1H-indol-3-yl)-1H-pyrazol-1-yl)acetic acid] | 4.00 to 5.00 |  |
| COC(=O)Cn1cc(-c2c[nH]c3cc(F)ccc23)cn1 [Example 42, methyl 2-(4-(6-fluoro-1H-indol-3-yl)-1H-pyrazol-1-yl)acetate] | 5.00 to 6.00 |  |
| Fc1ccc2c(-c3cnn(CC4CCN(CC(F)(F)F)CC4)c3)c[nH]c2c1 [Example 45, 6-fluoro-3-(1-((1-(2,2,2-trifluoroethyl)piperidin-4-yl)methyl)-1H-pyrazol-4-yl)-1H-indole] | 5.00 to 6.00 |  |
| O=C(O)CN1CCC(Cn2cc(-c3c[nH]c4cc(F)ccc34)cn2)CC1 [Example 49, 2-(4-((4-(6-fluoro-1H-indol-3-yl)-1H-pyrazol-1-yl)methyl)piperidin-1-yl)acetic acid] | 5.00 to 6.00 |  |
| O=C(O)CCC(=O)N1CCC(Cn2cc(-c3c[nH]c4cc(F)ccc34)cn2)CC1 [Example 50, 4-(4-((4-(6-fluoro-1H-indol-3-yl)-1H-pyrazol-1-yl)methyl)piperidin-1-yl)-4-oxobutanoic acid] | 4.00 to 5.00 |  |
| CNC(=O)[C@H]1C[C@@H](n2cc(-c3c[nH]c4cc(F)ccc34)cn2)C1 [Example 63, (1S,3S)-3-(4-(6-fluoro-1H-indol-3-yl)-1H-pyrazol-1-yl)-N-methylcyclobutanecarboxamide] | 5.00 to 6.00 |  |
| CNC(=O)[C@H]1C[C@H](n2cc(-c3c[nH]c4cc(F)ccc34)cn2)C1 [Example 64, (1R,3R)-3-(4-(6-fluoro-1H-indol-3-yl)-1H-pyrazol-1-yl)-N-methylcyclobutanecarboxamide] | 5.00 to 6.00 |  |
| O=C(O)[C@H]1C[C@@H](n2cc(-c3c[nH]c4cc(F)ccc34)cn2)C1 [Example 65, (1S,3S)-3-(4-(6-fluoro-1H-indol-3-yl)-1H-pyrazol-1-yl)cyclobutanecarboxylic acid] | 4.00 to 5.00 |  |
| O=C(O)[C@H]1C[C@H](n2cc(-c3c[nH]c4cc(F)ccc34)cn2)C1 [Example 66, (1R,3R)-3-(4-(6-fluoro-1H-indol-3-yl)-1H-pyrazol-1-yl)cyclobutanecarboxylic acid] | 4.00 to 5.00 |  |
| FC(F)(F)c1ccc2c(-c3cn[nH]c3)c[nH]c2c1 [Example 72, 3-(1H-pyrazol-4-yl)-6-(trifluoromethyl)-1H-indole] | 4.00 to 5.00 |  |
| OCCN1CCC(n2cc(-c3c[nH]c4cc(F)ccc34)cn2)CC1 [Example 79, 2-(4-(4-(6-fluoro-1H-indol-3-yl)-1H-pyrazol-1-yl)piperidin-1-yl)ethanol] | 5.00 to 6.00 |  |
| COCCC(=O)N1CCC(n2cc(-c3c[nH]c4cc(F)ccc34)cn2)CC1 [Example 81, 1-(4-(4-(6-fluoro-1H-indol-3-yl)-1H-pyrazol-1-yl)piperidin-1-yl)-3-methoxypropan-1-one] | 5.00 to 6.00 |  |
| CCC(=O)N1CCC(n2cc(-c3c[nH]c4cc(F)ccc34)cn2)CC1 [Example 82, 1-(4-(4-(6-fluoro-1H-indol-3-yl)-1H-pyrazol-1-yl)piperidin-1-yl)propan-1-one] | 5.00 to 6.00 |  |
| Fc1ccc2c(-c3cnn(-c4ccc(Cl)nn4)c3)c[nH]c2c1 [Example 108, 3-(1-(6-chloropyridazin-3-yl)-1H-pyrazol-4-yl)-6-fluoro-1H-indole] | 4.00 to 5.00 |  |
